In general, IC50 refers to the midpoint of a concentration-inhibition curve.

Active and inactive are the calls of the source.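 How the source made its calls: active means IC50 below 1 nM; inactive means the rest.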

For the assay, the system named is HCT116 TERT promoter luciferase reporter, 16 h. The assay can be described thus: modulation of TERT promoter-driven luciferase – HCT116 cells, human, dose response (AID 1259346).
For `Cc1nc2cc(-c3ccc(Br)cc3)nn2c(C)c1CCC(=O)O`, the IC50 is less than 1 nM.

As for `Cc1nc2cc(-c3ccccc3)nn2c(C)c1CCC(=O)O`, the IC50 was 7 nM (inactive).

Take `Cc1nc2cc(-c3cccc(Br)c3)nn2c(C)c1CCC(=O)O`: the IC50 is 346 nM (inactive).

`Cc1nc2cc(-c3ccc(C#CCO)cc3)nn2c(C)c1CCC(=O)O`: the IC50 is 3600 nM (inactive).

On to `COC(=O)CCc1c(C)nc2cc(-c3ccc(OC)cc3)nn2c1C`, for which the concentration for half-maximal inhibition (IC50) is less than 1 nM.

These data come from PubChem BioAssay AID1259346.
